Measurements reported in ChEMBL document CHEMBL4842340, “Development of Cagrilintide, a Long-Acting Amylin Analogue” (J Med Chem, 2021).
Values after ≈ are worked out from the molar mass of the structure shown. *1 amine or outer side, *2 acyl side, *3 side chain or, on linkers, in order; H or OH if unused. Where a SMILES comes first, the peptide text is derived from it. Bridges are numbered along the chain shown (N, C = ends). [ ]: non-standard residue; d: D form. The star is where a group is joined. X1 = O=C(NC(=O)[C@H](Cc1cnc[nH]1)N[*:1])[C@@H](Cc1cnc[nH]1)C(=O)[*:2]; C20 diacid = O=C(O)CCCCCCCCCCCCCCCCCCC(=O)*; γGlu = O=C(O)[C@H](CCC(=O)[*:2])N[*:1]; Agb = N=C(N)NCC[C@H](N)C(=O)O

What was measured:
Rattus norvegicus [1] = species: Rattus norvegicus; assay: Ratio of EC50 for rat calcitonin receptor expressed in BHK-13 cells to EC50 for rat AMY3R (CT+RAMP3) expressed in tk-ts13 cells; format: cell-based
Insulin (Homo sapiens) [2] = molecular target: Insulin (Homo sapiens) (UniProt P01308); assay: Effect on insulin (unknown origin) amyloid fibril formation assessed as peptide recovery in glycyl-glycine buffer at pH 4 measured after 45 hrs by thioflavin-T fluorescence assay relative to control; parameters: concentration or dose not given beside the values
[3] = Solubility of the compound in bis-tris propane at pH 8 by UPLC analysis; format: physicochemical; details: bis-tris propane buffer
[4] = Solubility of the compound in bis-tris propane at pH 6 by UPLC analysis; format: physicochemical; details: bis-tris propane buffer
[5] = Agonist activity at rat AMY3R (CT+RAMP3) expressed in tk-ts13 cells assessed as increase in intracellular cAMP level incuabted for 25 mins by CRE luciferase reporter gene assay; format: cell-based; details: tk-ts13, 25 min
[6] = Solubility of the compound in lactate at pH 5 by UPLC analysis; format: physicochemical; details: lactate buffer
[7] = Agonist activity at human calcitonin receptor expressed in BHK570 cells assessed as increase in intracellular cAMP concentration incubated for 3 hrs in absence of albumin by CRE luciferase reporter gene assay; format: cell-based; details: BHK570, 3 h
Homo sapiens = species: Homo sapiens; assay: Ratio of EC50 for human calcitonin receptor expressed in BHK570 cells to EC50 for human AMY3R (CT+RAMP3) expressed in Hollex1 cells; format: cell-based
[8] = Solubility of the compound in lactate at pH 3 by UPLC analysis; format: physicochemical; details: lactate buffer
[9] = Agonist activity at rat calcitonin receptor expressed in BHK-13 cells assessed as increase in intracellular cAMP concentration incubated for 25 mins by CRE luciferase reporter gene assay; format: cell-based; details: BHK-13, 25 min
[10] = Displacement of [125I]-amylin from human AMY3R (CTR+RAMP3) expressed in BHK-13 cells measured after 120 mins by scintillation proximity assay; format: cell-based
Rattus norvegicus [11] = assay: Reduction in food intake in Sprague-Dawley rat at 30 nmol/kg, sc administered as single dose measured upto 24 hrs relative to control; format: functional; parameters: scale not given: the % may be the effect or the level left; details: time hrs <=24
[12] = Agonist activity at human AMY3R (CT+RAMP3) expressed in Hollex1 cells incubated for 3 hrs by luminescence assay; format: cell-based; details: Hollex1, 3 h
[13] = Solubility of the compound in lactate at pH 4 by UPLC analysis; format: physicochemical; details: lactate buffer
Insulin (Homo sapiens) [14] = molecular target: Insulin (Homo sapiens) (UniProt P01308); assay: Effect on insulin (unknown origin) amyloid fibril formation assessed as lag time in glycyl-glycine buffer at pH 4 measured after 45 hrs by thioflavin-T fluorescence assay
Rattus norvegicus [15] = assay: Reduction in food intake in Sprague-Dawley rat at 30 nmol/kg, sc administered as single dose measured after 24 to 48 hrs relative to control; format: functional; parameters: scale not given: the % may be the effect or the level left; details: time 24-48 hrs
[16] = Solubility of the compound in bis-tris propane at pH 7 by UPLC analysis; format: physicochemical; details: bis-tris propane buffer
[17] = Solubility of the compound in bis-tris propane at pH 6.5 by UPLC analysis; format: physicochemical; details: bis-tris propane buffer
[18] = Solubility of the compound in bis-tris propane at pH 7.5 by UPLC analysis; format: physicochemical; details: bis-tris propane buffer

Sequence of Insulin (Homo sapiens) (P01308 whole entry): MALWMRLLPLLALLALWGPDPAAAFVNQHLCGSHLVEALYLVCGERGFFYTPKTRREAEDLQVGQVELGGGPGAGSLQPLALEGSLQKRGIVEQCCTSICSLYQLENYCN

Activity (Insulin (Homo sapiens) [2]) [%] | solubility [3] [µM] | solubility [4] [µM] | EC50 [5] [nM] | solubility [6] [µM] | EC50 [7] [nM] | solubility [8] [µM] | EC50 [9] [nM] | IC50 [10] [nM] | EC50 [12] [nM] | solubility [13] [µM] | TIME (Insulin (Homo sapiens) [14]) [h] | solubility [16] [µM] | solubility [17] [µM] | solubility [18] [µM] | Compound | Ratio EC50 (Rattus norvegicus [1]) | Ratio EC50 (Homo sapiens) | Activity (Rattus norvegicus [11]) [%] | Activity (Rattus norvegicus [15]) [%]
3 | 200 (≈ 948 µg/mL) | 200 (≈ 948 µg/mL) | 0.083 | 200 (≈ 948 µg/mL) | 0.2 | 200 (≈ 948 µg/mL) | 0.857 | 0.723 | 0.074 | 200 (≈ 948 µg/mL) | 7 |  |  |  | CC[C@H](C)[C@H](NC(=O)[C@@H]1CCCN1C(=O)CNC(=O)[C@H](Cc1ccccc1)NC(=O)[C@H](CC(N)=O)NC(=O)[C@H](CC(N)=O)NC(=O)[C@H](CO)NC(=O)[C@H](CO)NC(=O)[C@H](Cc1cnc[nH]1)NC(=O)[C@H](Cc1cnc[nH]1)NC(=O)[C@H](CC(C)C)NC(=O)[C@H](Cc1ccccc1)NC(=O)[C@H](CCC(=O)O)NC(=O)[C@H](C)NC(=O)[C@H](CC(C)C)NC(=O)[C@H](CCCNC(=N)N)NC(=O)[C@H](CCC(N)=O)NC(=O)[C@@H](NC(=O)[C@H](C)NC(=O)[C@@H]1CSSC[C@H](NC(=O)[C@H](Cc2cnc[nH]2)NC(=O)[C@H](Cc2cnc[nH]2)NC(=O)[C@H](Cc2cnc[nH]2)NC(=O)CC[C@H](NC(=O)CCCCCCCCCCCCCCCCCCC(=O)O)C(=O)O)C(=O)N[C@@H](CC(N)=O)C(=O)N[C@@H]([C@@H](C)O)C(=O)N[C@@H](C)C(=O)N[C@@H]([C@@H](C)O)C(=O)N1)[C@@H](C)O)C(=O)N[C@@H](CC(C)C)C(=O)N1CCC[C@H]1C(=O)N1CCC[C@H]1C(=O)N[C@H](C(=O)N[C@@H](CC(N)=O)C(=O)N[C@H](C(=O)NCC(=O)N[C@@H](CO)C(=O)N[C@@H](CC(N)=O)C(=O)N[C@H](C(=O)N[C@@H](Cc1ccc(O)cc1)C(N)=O)[C@@H](C)O)C(C)C)[C@@H](C)O ({C20 diacid-γGlu}-HHHCNTATCATQRLAEFLHHSSNNFGPILPPTNVGSNTY-NH2; disulfide 4-9) | 10 | 3 | 87 | 92
50 |  | 200 (≈ 952 µg/mL) | 0.082 | 200 (≈ 952 µg/mL) | 0.407 | 200 (≈ 952 µg/mL) | 6.76 |  | 0.072 | 200 (≈ 952 µg/mL) | 45 | 9 (≈ 42.8 µg/mL) |  |  | CC[C@H](C)[C@H](NC(=O)[C@@H]1CCCN1C(=O)CNC(=O)[C@H](Cc1ccccc1)NC(=O)[C@H](CC(N)=O)NC(=O)[C@H](CC(N)=O)NC(=O)[C@H](CO)NC(=O)[C@H](CO)NC(=O)[C@H](Cc1cnc[nH]1)NC(=O)[C@H](CCCNC(=N)N)NC(=O)[C@H](CC(C)C)NC(=O)[C@H](Cc1ccccc1)NC(=O)[C@H](CCC(=O)O)NC(=O)[C@H](C)NC(=O)[C@H](CC(C)C)NC(=O)[C@H](CCCNC(=N)N)NC(=O)[C@H](CCC(N)=O)NC(=O)[C@@H](NC(=O)[C@H](C)NC(=O)[C@@H]1CSSC[C@H](NC(=O)[C@H](Cc2cnc[nH]2)NC(=O)[C@H](Cc2cnc[nH]2)NC(=O)[C@H](Cc2cnc[nH]2)NC(=O)CC[C@H](NC(=O)CCCCCCCCCCCCCCCCCCC(=O)O)C(=O)O)C(=O)N[C@@H](CC(N)=O)C(=O)N[C@@H]([C@@H](C)O)C(=O)N[C@@H](C)C(=O)N[C@@H]([C@@H](C)O)C(=O)N1)[C@@H](C)O)C(=O)N[C@@H](CC(C)C)C(=O)N1CCC[C@H]1C(=O)N1CCC[C@H]1C(=O)N[C@H](C(=O)N[C@@H](CC(N)=O)C(=O)N[C@H](C(=O)NCC(=O)N[C@@H](CO)C(=O)N[C@@H](CC(N)=O)C(=O)N[C@H](C(=O)N[C@@H](Cc1ccc(O)cc1)C(N)=O)[C@@H](C)O)C(C)C)[C@@H](C)O ({C20 diacid-γGlu}-HHHCNTATCATQRLAEFLRHSSNNFGPILPPTNVGSNTY-NH2; disulfide 4-9) | 82 | 6 | 70 | 45
10 |  | 200 (≈ 953 µg/mL) | 0.143 | 200 (≈ 953 µg/mL) | 0.398 | 200 (≈ 953 µg/mL) | 7.09 |  | 0.069 | 200 (≈ 953 µg/mL) | 10 | 1 (≈ 4.77 µg/mL) | 117 (≈ 558 µg/mL) |  | CC[C@H](C)[C@H](NC(=O)[C@@H]1CCCN1C(=O)CNC(=O)[C@H](Cc1ccccc1)NC(=O)[C@H](CC(N)=O)NC(=O)[C@H](CC(N)=O)NC(=O)[C@H](CO)NC(=O)[C@H](CO)NC(=O)[C@H](Cc1cnc[nH]1)NC(=O)[C@H](Cc1cnc[nH]1)NC(=O)[C@H](CC(C)C)NC(=O)[C@H](Cc1ccccc1)NC(=O)[C@H](CCCNC(=N)N)NC(=O)[C@H](C)NC(=O)[C@H](CC(C)C)NC(=O)[C@H](CCCNC(=N)N)NC(=O)[C@H](CCC(N)=O)NC(=O)[C@@H](NC(=O)[C@H](C)NC(=O)[C@@H]1CSSC[C@H](NC(=O)[C@H](Cc2cnc[nH]2)NC(=O)[C@H](Cc2cnc[nH]2)NC(=O)[C@H](Cc2cnc[nH]2)NC(=O)CC[C@H](NC(=O)CCCCCCCCCCCCCCCCCCC(=O)O)C(=O)O)C(=O)N[C@@H](CC(N)=O)C(=O)N[C@@H]([C@@H](C)O)C(=O)N[C@@H](C)C(=O)N[C@@H]([C@@H](C)O)C(=O)N1)[C@@H](C)O)C(=O)N[C@@H](CC(C)C)C(=O)N1CCC[C@H]1C(=O)N1CCC[C@H]1C(=O)N[C@H](C(=O)N[C@@H](CC(N)=O)C(=O)N[C@H](C(=O)NCC(=O)N[C@@H](CO)C(=O)N[C@@H](CC(N)=O)C(=O)N[C@H](C(=O)N[C@@H](Cc1ccc(O)cc1)C(N)=O)[C@@H](C)O)C(C)C)[C@@H](C)O ({C20 diacid-γGlu}-HHHCNTATCATQRLARFLHHSSNNFGPILPPTNVGSNTY-NH2; disulfide 4-9) | 50 | 6 | 65 | 25
7 | 19 (≈ 90 µg/mL) | 200 (≈ 948 µg/mL) | 1.03 | 200 (≈ 948 µg/mL) | 0.961 | 200 (≈ 948 µg/mL) | 18.4 | 1.29 | 0.095 | 200 (≈ 948 µg/mL) | 7 | 7 (≈ 33.2 µg/mL) | 115 (≈ 545 µg/mL) | 5 (≈ 23.7 µg/mL) | CC[C@H](C)[C@H](NC(=O)[C@@H]1CCCN1C(=O)CNC(=O)[C@H](Cc1ccccc1)NC(=O)[C@H](CC(N)=O)NC(=O)[C@H](CC(N)=O)NC(=O)[C@H](CO)NC(=O)[C@H](CO)NC(=O)[C@H](Cc1cnc[nH]1)NC(=O)[C@H](Cc1cnc[nH]1)NC(=O)[C@H](CC(C)C)NC(=O)[C@H](Cc1ccccc1)NC(=O)[C@H](CC(N)=O)NC(=O)[C@H](C)NC(=O)[C@H](CC(C)C)NC(=O)[C@H](CCNC(=N)N)NC(=O)[C@H](CCC(N)=O)NC(=O)[C@@H](NC(=O)[C@H](C)NC(=O)[C@@H]1CSSC[C@H](NC(=O)[C@H](Cc2cnc[nH]2)NC(=O)[C@H](Cc2cnc[nH]2)C(=O)NC(=O)[C@H](Cc2cnc[nH]2)NC(=O)CC[C@H](NC(=O)CCCCCCCCCCCCCCCCCCC(=O)O)C(=O)O)C(=O)N[C@@H](CC(N)=O)C(=O)N[C@@H]([C@@H](C)O)C(=O)N[C@@H](C)C(=O)N[C@@H]([C@@H](C)O)C(=O)N1)[C@@H](C)O)C(=O)N[C@@H](CC(C)C)C(=O)N1CCC[C@H]1C(=O)N1CCC[C@H]1C(=O)N[C@H](C(=O)N[C@@H](CC(N)=O)C(=O)N[C@H](C(=O)NCC(=O)N[C@@H](CO)C(=O)N[C@@H](CC(N)=O)C(=O)N[C@H](C(=O)N[C@@H](Cc1ccc(O)cc1)C(N)=O)[C@@H](C)O)C(C)C)[C@@H](C)O ({C20 diacid-γGlu}-[X1]HCNTATCATQ[Agb]LANFLHHSSNNFGPILPPTNVGSNTY-NH2; disulfide 3-8) | 18 | 10 | 28 | 0
